Among the data in PubChem BioAssay (NCI) are GI50 and TGI values, retold here.

Structures are written as SMILES.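 All cell lines were grown in 96-well plates and treated with compound for 48 hours. Here, GI50 denotes the concentration required for 50% inhibition of growth. TGI marks complete inhibition of growth.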 Bounds are passed on as bounds.

Among the test systems are RPMI-8226 leukemia; ACHN renal; EKVX NSCLC; BT-549 breast; PC-3 prostate; SK-MEL-5 melanoma; COLO 205 colon; SR leukemia; SNB-75 CNS; MALME-3M melanoma.
Common to all, as to assay: growth of human tumour cells (NCI), 48 h

With `CC1CCN(CCOc2ccc(CNc3ccc4nc(CCC5CCCCC5)[nH]c4c3)cc2)CC1`, the GI50 with RPMI-8226 leukemia was 1.38 µM; with ACHN renal, 1.76 µM; with EKVX NSCLC, 1.62 µM; with BT-549 breast, 1.52 µM; in the test on PC-3 prostate, 1.44 µM; in the test with SK-MEL-5 melanoma, 1.7 µM. The GI50 is 1.57 µM with COLO 205 colon, 0.485 µM with SR leukemia, 1.59 µM with SNB-75 CNS and 1.71 µM with MALME-3M melanoma. The TGI was 3.35 µM in the test with RPMI-8226 leukemia; 3.22 µM in the test with ACHN renal; 3.18 µM in the test on EKVX NSCLC; 2.91 µM in the test with BT-549 breast; 2.93 µM with PC-3 prostate; 3.08 µM in the test with SK-MEL-5 melanoma. For the same molecule, the TGI is 3.08 µM in the test on COLO 205 colon, 2.66 µM in the test on SR leukemia, 3.55 µM with SNB-75 CNS and 3.17 µM in the test with MALME-3M melanoma.
On to `N#Cc1cccc(Nc2ncc(-c3ccccc3)o2)c1`, for which the GI50 in the test on RPMI-8226 leukemia was > 25 µM; with ACHN renal, 8.4 µM; in the test on EKVX NSCLC, 11 µM; with BT-549 breast, > 20.7 µM; with PC-3 prostate it was 15.1 µM; in the test with SK-MEL-5 melanoma, 13 µM. Besides, the GI50 in the test with COLO 205 colon was 14.8 µM; in the test on SR leukemia it was 11.8 µM; in the test with SNB-75 CNS it was 10.8 µM; with MALME-3M melanoma it was > 25 µM. The TGI in the test with RPMI-8226 leukemia, in the test with ACHN renal, in the test with EKVX NSCLC, with BT-549 breast, in the test with PC-3 prostate and in the test on SK-MEL-5 melanoma was > 25 µM in each case. Also, the TGI is > 25 µM with COLO 205 colon, > 25 µM in the test on SR leukemia, > 22.6 µM in the test on SNB-75 CNS and > 25 µM in the test on MALME-3M melanoma.
As to `N#C/C(=C\c1cc2ccc(N3CCC3)cc2oc1=O)C(=O)N(CC(=O)O)CC(=O)O`, the GI50 in the test with RPMI-8226 leukemia, in the test on ACHN renal, in the test on EKVX NSCLC, in the test with BT-549 breast, in the test with PC-3 prostate and in the test with SK-MEL-5 melanoma was > 100 µM in each case. Also, the GI50 in the test with COLO 205 colon, with SR leukemia, with SNB-75 CNS and in the test on MALME-3M melanoma was > 100 µM in each case. Besides, the TGI in the test with RPMI-8226 leukemia, in the test with ACHN renal, with EKVX NSCLC, in the test on BT-549 breast, in the test with PC-3 prostate and in the test on SK-MEL-5 melanoma was > 100 µM each time. Besides, the TGI in the test on COLO 205 colon, in the test with SR leukemia, in the test with SNB-75 CNS and in the test on MALME-3M melanoma was > 100 µM each time.
As to `CCn1ccnc1C(=O)/C=C/c1ccc(CC(=O)Nc2ccc(F)cc2)cc1`, the GI50 in the test with RPMI-8226 leukemia was 2.28 µM; with ACHN renal, 3.95 µM; with EKVX NSCLC, 3.59 µM; in the test on BT-549 breast, 2.94 µM; in the test with PC-3 prostate, 7.06 µM; in the test with SK-MEL-5 melanoma, 5.74 µM. For the same molecule, the GI50 with COLO 205 colon is 4.29 µM; with SR leukemia, 0.529 µM; in the test with SNB-75 CNS, 2.81 µM; in the test with MALME-3M melanoma, > 16.7 µM. In addition, the TGI in the test with RPMI-8226 leukemia is 8.09 µM; with ACHN renal, 11.7 µM; in the test with EKVX NSCLC it was 12.2 µM; in the test with BT-549 breast it was 7.03 µM; in the test on PC-3 prostate, > 16.7 µM; with SK-MEL-5 melanoma, > 16.7 µM. For the same molecule, the TGI is 13.1 µM in the test on COLO 205 colon, 11.1 µM in the test on SR leukemia, > 16.7 µM in the test on SNB-75 CNS and > 16.7 µM in the test on MALME-3M melanoma.
`O=c1[nH]c(=S)[nH]c(-c2ccccc2)c1Cc1c(O)ccc2ccccc12`: the TGI is 67.6 µM in the test with RPMI-8226 leukemia; > 100 µM with ACHN renal; 64.4 µM with EKVX NSCLC; 90.7 µM in the test with BT-549 breast; > 100 µM in the test with PC-3 prostate; 43.8 µM in the test on SK-MEL-5 melanoma. In addition, the TGI in the test with COLO 205 colon is 42.1 µM; in the test with SR leukemia, > 100 µM; in the test on SNB-75 CNS, 65 µM; in the test with MALME-3M melanoma, > 100 µM.
Turning to `Nc1nc(C(=O)O)c(N=Nc2ccccc2)c(=O)[nH]1`, the TGI with RPMI-8226 leukemia, in the test on ACHN renal, in the test with EKVX NSCLC, with BT-549 breast, in the test with PC-3 prostate and in the test on SK-MEL-5 melanoma was > 100 µM each time. Moreover, the TGI with COLO 205 colon, with SR leukemia, in the test with SNB-75 CNS and in the test on MALME-3M melanoma was > 100 µM throughout.
As to `O=C1/C(=C/c2ccccc2[N+](=O)[O-])COc2ccc(O)cc21`, the GI50 with RPMI-8226 leukemia was 0.612 µM; in the test on ACHN renal, 0.74 µM; in the test with EKVX NSCLC, 3.22 µM; in the test with BT-549 breast, 2.3 µM; in the test with PC-3 prostate it was 2.01 µM; with SK-MEL-5 melanoma, 1.76 µM. For the same molecule, the GI50 in the test on COLO 205 colon is 1.14 µM; in the test with SR leukemia, 0.366 µM; with SNB-75 CNS, 2.76 µM; with MALME-3M melanoma, 1.65 µM. Moreover, the TGI is 5 µM with RPMI-8226 leukemia; 2.13 µM with ACHN renal; 14.5 µM in the test with EKVX NSCLC; 5.23 µM in the test with BT-549 breast; 10.8 µM with PC-3 prostate; 4.07 µM with SK-MEL-5 melanoma. The TGI was 2.89 µM in the test with COLO 205 colon, > 100 µM in the test with SR leukemia, 19.6 µM in the test on SNB-75 CNS and 4.62 µM in the test with MALME-3M melanoma.
As to `CN(C)c1nc(N)c(C#N)c(C#N)c1C#N`, the TGI with RPMI-8226 leukemia, with ACHN renal, in the test with EKVX NSCLC, in the test with BT-549 breast, with PC-3 prostate and in the test on SK-MEL-5 melanoma was > 10 µM each time. The TGI in the test on COLO 205 colon, in the test with SR leukemia, in the test with SNB-75 CNS and with MALME-3M melanoma was > 10 µM each time.
